Source: patent US12319726B2, “Method for treating CD40-mediated diseases” (CASE WESTERN RESERVE UNIVERSITY, priority 2008, dated 2025)
Where no end group is shown, it is not given here.

Tests used:
retinas subjected to I/R = assay: Model of retinal ischemia/reperfusion (I/R), intravitreal peptide; type: in vivo, B6 mice
Procedure: FIGS. 20(A-C) illustrate images and graphs showing ri CD40-TRAF2,3 blocking peptide protects against loss of ganglion cells and leukocyte infiltration in retinas subjected to I/R. One eye from each B6 and CD40^−/− mouse was subjected to I/R. Contralateral non-ischemic eye was used as control. Eyes subjected to I/R in B6 mice were treated intravitreously with or without ri control peptide, ri CD40-TRAF2,3 blocking peptide (both 1 μg) 30 min prior to increase in IOP. Eyes were collected 2 d after I/R. A marked decrease in the number of ganglion cells is observed in ischemic eyes from B6 treated with ri control peptide or vehicle (original magnification ×400). […] Arrowhead plus asterix identifies a PMN magnified in the inset (original magnification ×600). Scale bar, 50 μm. Number of ganglion cells per mm. Number of infiltrating leukocytes in the inner retina and vitreous per section. GCL=Ganglion cell layer; IPL=Inner plexiform layer; INL=Inner nuclear layer. OPL=Outer plexiform layer; ONL=Outer nuclear layer. Data shown represent Mean±SEM (9 mice per group). *P<0.05; **P<0.01; […].
FIG. 21 illustrates graphs showing ri CD40-TRAF2,3 blocking peptide impairs upregulation of NOS2 and COX-2 in retinas subjected to I/R. One eye of each mouse was treated as above and subjected to I/R. Eyes were collected after 2 d. mRNA levels of NOS2 and COX-2 were assessed by quantitative real time PCR. One non-ischemic eye from a B6 mouse was given an arbitrary value of 1 and data are expressed as fold-increase compared to this animal. Data shown represent Mean±SEM (7-9 mice per group). ***P<0.001.
FIGS. 22(A-B) illustrate graphs and images showing ri CD40-TRAF2,3 blocking peptide impairs upregulation of ICAM-1 and KC/CXCL1 in retinal endothelial cells from retinas subjected to I/R. One eye of each mouse was subjected to I/R. Eyes were collected after 2 d. mRNA levels of ICAM-1 and KC/CXCL1 were assessed by quantitative real time PCR. One non-ischemic eye from a B6 mouse was given an arbitrary value of 1 and data are expressed as fold-increase compared to this animal. Data shown represent Mean±SEM (7-9 mice per group). ***P<0.001. Retinal sections were incubated with Tomato Lectin (labels endothelial cells) plus either anti-ICAM-1 or anti-KC/CXCL1 Ab. Original magnification ×600. GCL=Ganglion cell layer; IPL=Inner plexiform layer; INL=Inner nuclear layer. Scale bar, 10 μm. 6 mice/group.
FIG. 23 illustrates images showing ri CD40-TRAF2,3 blocking peptide impairs NOS2 and KC/CXCL1 upregulation in Müller cells from retinas subjected to I/R. Eyes from B6 mice were treated with control peptide or CD40-TRAF2,3 blocking peptide, subjected to I/R and collected after 2 d. Retinal sections were incubated with anti-Vimentin Ab (labels Müller cells) plus either anti-NOS2 or anti-KC/CXCL1 Ab. Protein expression at the level of Müller cells stalks. […]. Original magnification ×600. Scale bar, 10 μm. 6 mice/group.
FIGS. 24(A-D) illustrate images and graphs showing ri CD40-TRAF2,3 blocking peptide protects against loss of ganglion neurons and inflammation when administered after retinal I/R. One eye from each B6 mouse was subjected to I/R. Non-ischemic eyes were used as controls. Eyes that were subjected to I/R received either ri control peptide or ri CD40-TRAF2,3 blocking peptide 90 min after increase in IOP. Eyes were collected 2 d after I/R. Administration of the blocking peptide protects against ganglion cell loss and infiltration by leukocytes (arrowhead). Original magnification ×400. Scale bar, 50 μm. Number of ganglion cells per mm. Number of leukocytes in the inner retina and vitreous per section. mRNA levels of ICAM-1, KC/CXCL1, NOS2 and COX-2 were assessed by quantitative real time PCR as above. Data shown represent Mean±SEM (7-9 mice per group). **P<0.01; ***P<0.001. GCL=Ganglion cell layer; IPL=Inner plexiform layer; INL=Inner nuclear layer. […]

human Müller cells = type: cell-based
Source text: (§1) Peptide consisted of the TRAF2,3 binding site of CD40 that was made cell permeable by linking them to the TAT47-57 cell penetrating peptide. Peptides were synthesized using D-amino acids following reverse amino acid sequence (ri format). The sequences for the CD40-TRAF2,3 blocking peptide was —NH2-rrrqrrkkrgy ghlteqvhaatn-OH (SEQ ID NO: 49). The TAT47-57 sequence is underlined. The peptide contains a proline (p) to histidine (h) substitution (shown in italics) that enhances affinity to TRAF2. Control (scrambled) peptide consisted of NH2-rrrqrrkkrgy ntqalahtgevh-OH (SEQ ID NO: 50). The blocking peptide was also synthesized with Alexa Fluor 488 conjugated via maleimide coupling to an additional Cys in the N terminus. Peptides were manufactured by Biopeptide Co. (San Diego, CA) and were low in endotoxin and >98% pure by HPLC. Peptides were used at 1 μM in vitro experiments and 1 μg for in vivo studies unless otherwise stated. Peptides were not toxic to human Müller and retinal endothelial cells as assessed by alamarBlue cell viability assay (Invitrogen Corporation).
(§2) Primary human retinal endothelial cells were obtained as described (9) and cultured in complete medium supplemented with endothelial cell growth supplement from bovine pituitary (15 μg/ml; Sigma Chemical, St Louis, MO) and insulin/transferrin/selenium (Sigma Chemical). Cell identity was confirmed by incorporation of acetylated low-density lipoprotein (>90%). Endothelial cells were used between passages 3 to 6. The human Müller cell line MIO M1 (gift from Dr. Gloria Limb; University College London, UK; >95% vimentin^+, CRALBP^+ and GFAP^−) was also used. Endothelial cells were incubated with multimeric human CD154 to induce CD40 stimulation (obtained from Dr. Richard Kornbluth, Multimeric Biotherapeutics Inc., La Jolla, CA) or with a non-functional CD154 mutant (T147N) as control.
(§3) Peptides were tested as described using the mouse endothelial cells mHEVc that expresses a chimera of the extracellular domain of human CD40 and intracytoplasmic domain of mouse CD40 (hmCD40) with either a mutation that prevents recruitment of TRAF2,3 (hmCD40 ΔT2,3) or TRAF6 (hmCD40 ΔT6). These cells were transfected with pGL4.32luc2P/NF-κB-RE/Hygro vector (Promega Corporation, Madison, WI) encoding an NF-κB response element that drives the luciferase reporter gene luc2P (Photinus pyralis). Cells were pre-incubated with peptides for 3 hr. followed by stimulation with human CD154. Luciferase activity was assessed using a Steady-Glo luciferase assay system (Promega Corporation) and a luminometer. The effects of peptides on cell viability were examined using alamarBlue cell viability assay.

[1] = test system: human retinal endothelial cells; type: cell-based
Source text: as §1, §2, §3

[2] = test system: Human aortic endothelial cells (HAEC); assay: CD154-induced VCAM-1 upregulation in HAEC transduced with wild-type CD40 (FACS); type: cell-based; settings: second generation peptides (Tat MTD), 100 nM, p<0.02
Procedure: FIGS. 2A-D are a series of graphs showing the induction of VCAM-1 (FIG. 2A), ICAM-1 (FIG. 2B), MCP-1 (FIG. 2C), and tissue factor (FIG. 2D) expression by TRAFs. Human aortic endothelial cells (HAEC) transduced with empty EGFP-encoding retroviral vector (MIEG3) or retroviral vector that encoded either wild type CD40 (wt CD40), CD40 with a mutation that prevents recruitment of TRAF2 and 3 (ΔT2, 3), recruitment of TRAF6 (ΔT6), or recruitment of TRAF2, 3, and 6 (ΔT2, 3, and 6) were incubated with or without CD154. VCAM-1, ICAM-1, and tissue factor were assessed by FACS on transduced (EGFP+) cells. cMFI=corrected Mean Fluorescence Intensity. MCP-1 was measured by ELISA (N=3).
FIGS. 3A-B are a series of graphs showing the effects cell-permeable polypeptides that block CD40-TRAF interactions (T2,3BP and T6BP) on upregulation of VCAM-1 and MCP-1 in HAEC. HAEC were transduced with retroviral vectors encoding wild-type CD40 and incubated with or without CD154. HAEC were pre-treated with either control, TRAF2,3 blocking peptide (T2,3BP), or TRAF6 blocking peptide (T6BP) (200 μM) (N=2).
FIG. 5 is a graph showing the effects of second generation TRAF2, 3 blocking peptide on VCAM-1 upregulation in HAEC.
CD40 activates a variety of signaling cascades. […] Next, we determined if preventing the function of the TRAF2,3 binding site affects adhesion molecule upregulation. […]

HAEC = assay: Viability of HAEC incubated with cell-permeable peptides; type: cell-based, human; settings: first generation cell-permeable peptides
Source text: We used peptides that consisted of the amino acid sequence of the TRAF2,3 or the TRAF6 binding sites of CD40 fused a protein transduction domain derived from the Kaposi fibroblast growth factor to make the peptides cell-permeable, (SEQ ID NO: 1 or SEQ ID NO: 2, respectively). […] Thus, the results obtained with the blocking peptides were similar to those obtained with CD40 mutants.

[3] = 1 μg intravitreal prior to I/R, 2 d, real time PCR
[4] = prior to I/R, 2 d, immunohistochemistry

CC(C)C[C@@H](NC(=O)[C@@H](C)NC(=O)[C@@H](CCC(N)=O)NC(=O)[C@H](NC(=O)[C@@H](CC(N)=O)NC(=O)[C@@H](Cc1ccc(O)cc1)NC(=O)CNC(=O)[C@@H](CCCNC(=N)N)NC(=O)[C@@H](CCCCN)NC(=O)[C@@H](CCCCN)NC(=O)[C@@H](CCCNC(=N)N)NC(=O)[C@@H](CCCNC(=N)N)NC(=O)[C@@H](CCC(N)=O)NC(=O)[C@@H](CCCNC(=N)N)NC(=O)[C@@H](CCCNC(=N)N)NC(=O)[C@H](N)CCCNC(=N)N)[C@H](C)O)C(=O)N[C@H](C)C(=O)N[C@H](Cc1c[nH]cn1)C(=O)N[C@@H](C(=O)NCC(=O)N[C@H](CCC(=O)O)C(=O)N[C@@H](C(=O)N[C@H](Cc1c[nH]cn1)C(=O)O)C(C)C)[C@H](C)O [ri control peptide, NH2-rrrqrrkkrgy ntqalahtgevh-OH, reference compound]
COX-2 mRNA levels in retina (retinas subjected to I/R; [3]): upregulated | ICAM-1 mRNA levels in retina (retinas subjected to I/R; [3]): marked upregulation | KC/CXCL1 mRNA levels in retina (retinas subjected to I/R; [3]): marked upregulation | NOS2 mRNA levels in retina (retinas subjected to I/R; [3]): upregulated | PMN infiltration in the inner retina and vitreous (retinas subjected to I/R; 1 μg intravitreal prior to I/R, 2 d after I/R): developed PMN infiltration | loss of ganglion cells (retinas subjected to I/R; 1 μg intravitreal prior to I/R, eyes collected 2 d after I/R): not altered | expression of ICAM-1 in retinal endothelial cells (retinas subjected to I/R; [4]): increased | expression of KC/CXCL1 in Müller cells (retinas subjected to I/R; [4]): increased KC/CXCL1 expression | expression of KC/CXCL1 in retinal endothelial cells (retinas subjected to I/R; [4]): increased | expression of NOS2 in Müller cells (retinas subjected to I/R; [4]): NOS2 upregulation | toxicity (alamarBlue cell viability assay) (human Müller cells): not toxic | toxicity (alamarBlue cell viability assay) [1]: not toxic

KQEPQEIDFPDD YGRKKRRQRRR [SEQ ID NO: 18]
inhibition of upregulation of VCAM-1 triggered by CD154 [2]: 60%

AAVALLPAVLLALLAPAPHPKQEPQEIDFPDD [SEQ ID NO: 2, AAVALLPAVLLALLAP APHPKQEPQEIDFPDD]
viability of HAEC (HAEC): did not affect viability

AAVALLPAVLLALLAPSNTAAPVQETLHG [SEQ ID NO: 1, AAVALLPAVLLALLAP SNTAAPVQETLHG]
viability of HAEC (HAEC): did not affect viability

NTAAHVQETLHG YGRKKRRQRRR [SEQ ID NO: 13]
inhibition of upregulation of VCAM-1 triggered by CD154 [2]: 60%
